≈ marks a conversion by molar mass, not a printed value.

The test system of experiment [1] is gentamicin sensitive Acinetobacter baumannii #2 from Walter Reed. Briefly: MIC, A. baumannii WReed 2. In kind it is cell-based. The following applies: for MIC: Acinetobacter baumannii. How it is done: (§1) The MIC assays are carried out in 150 μL volume in duplicate in 96-well clear flat-bottom plates. The bacterial suspension from an overnight culture growth in appropriate medium is added to a solution of test compound in 4% DMSO in water. Final bacterial inoculum is approximately 10^5-10^6 CFU/well. […] Both ampicillin and tetracycline are used as antibiotic-positive controls in each screening assay for S. pyogenes, E. coli imp-, E. coli, S. aureus, E. faecalis, K. pneumoniae and P. vulgaris. Ciprofloxacin is used as an antibiotic positive control in each screening assay for P. aeruginosa.
(§2) The following compounds were prepared using methods illustrated in the previous examples. The compounds were also examined in standard bacterial assays against E. Coli, S. Aureus, P. aurginosa, K. pneumoniae, P. vulgaris, and A. baumannii to determine activities. Each of the bacterial cultures that are available from ATCC (www.atcc.org) is identified by its ATCC number. A. baumannii is gentamicin sensitive Acinetobacter baumannii #2 from Walter Reed.

For another experiment, the system named is K. pneumoniae ATCC 10031. Briefly: MIC, K. pneumoniae ATCC 10031. In kind it is cell-based. Conditions: for MIC: Klebsiella pneumoniae. Here is the method:
as §1, §2

The next experiment has as its system E. coli ATCC 25922. Briefly: MIC, E. coli ATCC 25922. The class given is cell-based. Conditions: for MIC: Escherichia coli. Here is the method:
as §1, §2

For another experiment, the system named is S. aureus ATCC 13709. Briefly: MIC, S. aureus ATCC 13709. The class given is cell-based. Conditions: for MIC: Staphylococcus aureus. How it is done:
as §1, §2

Another experiment deals with P. aurginosa ATCC 29248. The experiment in a line: MIC, P. aurginosa ATCC 29248. The class given is cell-based. How it is done: as §1, §2
Another experiment concerns P. aurginosa ATCC 25416. Briefly: MIC, P. aurginosa ATCC 25416. In kind it is cell-based. How it is done:
as §1, §2

In another experiment the test system is P. vulgaris ATCC 8427. The experiment in a line: MIC, P. vulgaris ATCC 8427. In kind it is cell-based. The following applies: for MIC: Proteus vulgaris. Here is the method:
as §1, §2

For experiment [2], the system named is Staphylococcus aureus (Smith Strain ATCC 13709). The experiment in a line: Staphylococcus aureus mouse protection assay. In kind it is in vivo, mice. The following applies: Staph Conc. 10^6, 10% Mucin, the 13th table. Here is the method: Two of the novel aminoglycoside compounds of the invention were examined for their anitbacterial activity against staphylococcus aureus. Mice were fed with autoclaved commercial food pellets and sterile water ad libitum. Animals were inoculated intraperitoneally with 0.5 mL/mouse of the indicated concentration of S. aureus (ATCC 13709) containing 10% mucin. There were 10 mice in each treatment group and compounds were administered subcutaneously one and 3 hour after infection. Compounds 15a (R4═R5═CH3) and 15j (R4═H, R5═(CH2)2C6H5)) were used at 75 mg/kg, 37.5 mg/kg, 18.8 mg/kg, 9.4 mg/kg, 4.7 mg/kg, 2.3 mg/kg, 1.17 mg/kg and 0.5 mg/kg. Amakacin, paromomycin and neomycin were used as the positive controls at concentrations of 2 mg/kg, 1 mg/kg and 0.5 mg/kg.
Test compound was administered as an aqueous buffer solution (phosphate buffered saline (PBS), pH=7.4).

The subject of another experiment is S. Aureus. Briefly: MIC, S. Aureus. In kind it is cell-based. The following applies: Example 108. An outline of the steps:
(§3)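 Broth microdilution in duplicate, 150 μL: overnight-culture bacteria were added to compound in 4% DMSO in water. Final inoculum was about 10^5–10^6 CFU/well.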

Experiment [3] has as its system E. coli S30 bacterial extract (pBestLuc firefly luciferase reporter). The experiment in a line: Coupled bacterial transcription/translation assay. In kind it is biochemical. The following applies: Example 108; read-out: Trans/Trans IC50. An outline of the steps: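 Coupled transcription/translation of firefly luciferase from 1 μg pBestLuc (tac promoter) in E. coli S30 extract, with or without test compound. Reaction 35 min at 37° C., then functional luciferase detected by luminescence.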

Experiment [4] addresses 18S ribosomal subunit RNA target. Briefly: Mass spectrometry based binding assay (FTICR), 18S. Conditions: Example 108. An outline of the steps:
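Ligands at varying concentrations were mixed with 2.5 or 5 μM RNA in 100 mM ammonium acetate with 33% isopropyl alcohol, then analysed by negative-mode ESI-FTICR. Complex/free RNA ion ratios plotted against ligand concentration were fitted to a second- or higher-order binding polynomial to give KD.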

Experiment [5] concerns the target 16S ribosomal subunit RNA target. The experiment in a line: Mass spectrometry based binding assay (FTICR), 16S. The following applies: Example 108. An outline of the steps: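 Binding to the 16S ribosomal subunit RNA target was measured by FTICR mass spectrometry. Ligands or ligand mixtures were prepared at several concentrations in 10 μL of aqueous 100 mM ammonium acetate buffer with 33% isopropyl alcohol. Samples were infused at 1 μL/min into a negative-mode electrospray source, and ions were held 1 sec in an RF-only hexapole. Complex/free RNA ratios versus ligand concentration were fitted to a binding polynomial to obtain KD.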

In a further experiment the test system is E. Coli. Briefly: MIC, E. Coli. The class given is cell-based. Conditions: Example 108. An outline of the steps: as §3

In the case of `NCCCNCCO[C@H]1[C@H](O[C@@H]2[C@@H](O)[C@H](NC(=O)[C@@H](O)CCN)C[C@H](N)[C@H]2O[C@H]2O[C@H](CO)[C@@H](O)[C@H](O)[C@H]2N)O[C@H](CO)[C@H]1O[C@H]1O[C@@H](CN)[C@@H](O)[C@H](O)[C@H]1N` [Compound 46b, N-1-haba-2″-O-(1,3-diamino)ethyl paromomycin], the MIC in [1] (Example 110) is 2.5 to 5 µM (≈ 2.04 to 4.08 µg/mL); against K. pneumoniae ATCC 10031 (ATCC10031, Example 110) it was 1.3 to 2.5 µM (≈ 1.06 to 2.04 µg/mL); against E. coli ATCC 25922 (ATCC25922, Example 110), 5 to 10 µM (≈ 4.08 to 8.17 µg/mL); with S. aureus ATCC 13709 (ATCC13709, Example 110), 1.2 to 2.5 µM (≈ 0.98 to 2.04 µg/mL); with P. aurginosa ATCC 29248 (Example 110), 5 to 10 µM (≈ 4.08 to 8.17 µg/mL); in the experiment with P. aurginosa ATCC 25416 (Example 110), 1.3 to 2.5 µM (≈ 1.06 to 2.04 µg/mL). In addition, the MIC against P. vulgaris ATCC 8427 (ATCC8427, Example 110) is 5 to 10 µM (≈ 4.08 to 8.17 µg/mL).
For the compound `CN(C)CC1OC(OC2C(N)CC(N)C(O)C2OC2OC(CO)C(OC3OC(CN)C(O)C(O)C3N)C2O)C(N)C(O)C1O` (centres unmarked) [Compound 15a], the “# Dead mice/Total mice in group” value in [2] (0.5 mg/kg subcutaneously) is on record as 8/10; in experiment [2] (1 mg/kg subcutaneously) it was 7/10; in [2] (2 mg/kg subcutaneously), 7/10; in [2] (4.5 mg/kg subcutaneously), 1/10; in experiment [2] (9 mg/kg subcutaneously), 0/10; in experiment [2] (18 mg/kg subcutaneously), 0/10. In addition, the “# Dead mice/Total mice in group” value in experiment [2] (37 mg/kg subcutaneously) was 0/10; in [2] (75 mg/kg subcutaneously one and 3 hour after infection, intraperitoneal), 0/10. Further, in the experiment with S. Aureus, the “MIC S. Aureus” value lay within 2 to 3 µM. Further, the IC50 in experiment [3] stood at 0.3 µM. The Kd in experiment [4] worked out at 0.7 µM; in experiment [5], 0.6 µM. Also, the “MIC E. Coli.” value in the experiment on E. Coli fell in the range of 3 to 6 µM.
`NCC1OC(OC2C(CO)OC(OC3C(O)C(N)CC(N)C3OC3OC(CO)C(O)C(O)C3N)C2OCCNCCN2C(=O)c3cccc4cccc(c34)C2=O)C(N)C(O)C1O` (centres unmarked) [Compound 9ae]: the “MIC A. baumannii WReed 2” value in experiment [1] (Example 110) lay within 20 to 40 µM. In the experiment with K. pneumoniae ATCC 10031 (Example 110), the “MIC K. pneumoniae ATCC 10031” value is 5 to 10 µM. The “MIC E. coli ATCC 25922” value in the experiment with E. coli ATCC 25922 (Example 110) was above 40 µM. In the experiment with S. aureus ATCC 13709 (Example 110), the “MIC S. aureus ATCC 13709” value is 10 to 20 µM. Moreover, the “MIC P. aurginosa ATCC 29248” value against P. aurginosa ATCC 29248 (Example 110) was above 40 µM. In the experiment on P. aurginosa ATCC 25416 (Example 110), the “MIC P. aurginosa ATCC 25416” value was in the range of 5 to 10 µM. In the experiment with P. vulgaris ATCC 8427 (Example 110), the “MIC P. vulgaris ATCC 8427” value is 20 to 40 µM.
For `NCC[C@H](O)C(=O)N[C@@H]1C[C@H](N)[C@@H](O[C@H]2O[C@H](CO)[C@@H](O)[C@H](O)[C@H]2N)[C@H](O[C@@H]2O[C@H](CO)[C@@H](O[C@H]3O[C@@H](CN)[C@@H](O)[C@H](O)[C@H]3N)[C@H]2OCCNCCc2ccccc2)[C@H]1O` [Compound 46a, N-1-haba-2″-O-phenylethylaminoethyl paromomycin], the MIC in experiment [1] (Example 110) is 0.6 to 1.3 µM (≈ 0.518 to 1.12 µg/mL); in experiment [1] (Example 111), 10 to 20 µM (≈ 8.64 to 17.3 µg/mL); against K. pneumoniae ATCC 10031 (ATCC10031, Example 110), below 0.6 µM; with K. pneumoniae ATCC 10031 (ATCC10031, Example 111) it was 0.3 to 0.6 µM (≈ 0.259 to 0.518 µg/mL); in the experiment with E. coli ATCC 25922 (ATCC25922, Example 110), 0.6 to 1.3 µM (≈ 0.518 to 1.12 µg/mL); in the experiment on E. coli ATCC 25922 (ATCC25922, Example 111) it was 1.3 to 2.5 µM (≈ 1.12 to 2.16 µg/mL). In addition, the MIC against S. aureus ATCC 13709 (ATCC13709, Example 110) was in the range of 0.6 to 1.2 µM (≈ 0.518 to 1.04 µg/mL); in the experiment with S. aureus ATCC 13709 (ATCC13709, Example 111) it was 0.2 to 0.3 µM (≈ 0.173 to 0.259 µg/mL); against P. aurginosa ATCC 29248 (Example 110) it was 1.3 to 2.5 µM (≈ 1.12 to 2.16 µg/mL); in the experiment on P. aurginosa ATCC 29248 (Example 111), 5 to 10 µM (≈ 4.32 to 8.64 µg/mL); in the experiment on P. aurginosa ATCC 25416 (Example 110) it was 0.6 to 1.3 µM (≈ 0.518 to 1.12 µg/mL); in the experiment with P. aurginosa ATCC 25416 (Example 111), 10 to 20 µM (≈ 8.64 to 17.3 µg/mL). The MIC was 0.6 to 1.3 µM (≈ 0.518 to 1.12 µg/mL) against P. vulgaris ATCC 8427 (ATCC8427, Example 110) and 5 to 10 µM (≈ 4.32 to 8.64 µg/mL) against P. vulgaris ATCC 8427 (ATCC8427, Example 111).

Values taken from patent publication US8569264B2, “Antibacterial 4,5-substituted aminoglycoside analogs having multiple substituents” (ISIS Pharmaceuticals, Inc., priority 2005, dated 2013).
